Data published in patent US8273762B2, “Hexahydro-pyrrolo-isoquinoline compounds” (Janssen Pharmaceutica NV, priority 2005, dated 2012).
Where two headings read alike, the source gives them in different places.

Assays:
[1] = target: T1, cloned human H3 receptor, stably expressed in SK-N-MC cells (Homo sapiens, UniProt Q9Y5N1); assay: H3 receptor binding (N-[3H]-α-methylhistamine displacement); details: SK-N-MC membranes, 0.8 nM N-[3H]-α-methylhistamine
T1 construct: expressed in transfected cells

[2] = target: T2, Rat SERT (Rattus norvegicus, UniProt P31652); assay: Rat brain SERT binding ([3H]-Citalopram displacement)
T2 construct: A rat brain without cerebellum (Zivic Laboratories, Inc.—Pittsburgh, Pa.) was homogenized; tissue Zivic Laboratories, Inc; host or cells: rat brain without cerebellum, membranes

[3] = target: T3, human SERT (HEK293 membranes) (Homo sapiens, UniProt P31645); assay: Human SERT binding (3H-citalopram displacement)
T3 construct: purchased Perkin-Elmer; host or cells: HEK293 membranes

[4] = target: T4, human H3 receptor (SK-N-MC cells) (Homo sapiens, UniProt Q9Y5N1); assay: Cyclic AMP accumulation (β-galactosidase reporter, Schild analysis vs histamine); type: cell-based
T4 construct: expressed in transfected cells; host or cells: SK-N-MC sublines with CRE-beta-galactosidase reporter

[5] = rat brain membranes, 0.6 nM [3H]-Citalopram, read-out: Rat SERT Ki

T1 sequence (Q9Y5N1 whole entry): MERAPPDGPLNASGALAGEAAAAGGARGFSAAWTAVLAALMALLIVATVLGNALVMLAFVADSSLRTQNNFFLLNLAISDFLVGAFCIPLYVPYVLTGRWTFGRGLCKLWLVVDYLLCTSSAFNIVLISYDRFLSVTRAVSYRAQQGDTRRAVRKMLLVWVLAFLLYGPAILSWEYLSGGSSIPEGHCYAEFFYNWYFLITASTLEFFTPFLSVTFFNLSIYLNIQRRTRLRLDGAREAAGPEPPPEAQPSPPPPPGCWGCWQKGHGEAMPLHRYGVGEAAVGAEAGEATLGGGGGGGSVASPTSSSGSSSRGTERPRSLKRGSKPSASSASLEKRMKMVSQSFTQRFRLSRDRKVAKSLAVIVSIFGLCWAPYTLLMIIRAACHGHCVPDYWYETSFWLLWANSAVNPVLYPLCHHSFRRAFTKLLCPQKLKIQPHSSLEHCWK
T4 sequence (Q9Y5N1 whole entry): as above
T2 sequence (P31652 whole entry): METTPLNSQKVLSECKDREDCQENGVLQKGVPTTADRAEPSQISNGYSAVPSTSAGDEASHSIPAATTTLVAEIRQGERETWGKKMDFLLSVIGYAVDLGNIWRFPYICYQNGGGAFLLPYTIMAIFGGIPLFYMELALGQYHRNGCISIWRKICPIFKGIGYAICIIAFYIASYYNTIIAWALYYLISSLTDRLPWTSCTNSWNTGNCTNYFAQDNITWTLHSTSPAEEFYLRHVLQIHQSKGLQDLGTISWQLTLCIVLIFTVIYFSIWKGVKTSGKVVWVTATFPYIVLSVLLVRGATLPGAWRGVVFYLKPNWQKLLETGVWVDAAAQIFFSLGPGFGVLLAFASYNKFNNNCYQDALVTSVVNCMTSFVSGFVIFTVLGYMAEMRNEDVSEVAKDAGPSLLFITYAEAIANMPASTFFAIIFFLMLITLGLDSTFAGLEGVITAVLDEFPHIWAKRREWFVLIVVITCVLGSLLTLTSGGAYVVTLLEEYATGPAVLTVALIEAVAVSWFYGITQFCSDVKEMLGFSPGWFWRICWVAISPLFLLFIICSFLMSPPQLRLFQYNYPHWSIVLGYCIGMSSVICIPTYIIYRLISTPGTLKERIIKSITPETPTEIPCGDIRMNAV
T3 sequence (P31645 whole entry): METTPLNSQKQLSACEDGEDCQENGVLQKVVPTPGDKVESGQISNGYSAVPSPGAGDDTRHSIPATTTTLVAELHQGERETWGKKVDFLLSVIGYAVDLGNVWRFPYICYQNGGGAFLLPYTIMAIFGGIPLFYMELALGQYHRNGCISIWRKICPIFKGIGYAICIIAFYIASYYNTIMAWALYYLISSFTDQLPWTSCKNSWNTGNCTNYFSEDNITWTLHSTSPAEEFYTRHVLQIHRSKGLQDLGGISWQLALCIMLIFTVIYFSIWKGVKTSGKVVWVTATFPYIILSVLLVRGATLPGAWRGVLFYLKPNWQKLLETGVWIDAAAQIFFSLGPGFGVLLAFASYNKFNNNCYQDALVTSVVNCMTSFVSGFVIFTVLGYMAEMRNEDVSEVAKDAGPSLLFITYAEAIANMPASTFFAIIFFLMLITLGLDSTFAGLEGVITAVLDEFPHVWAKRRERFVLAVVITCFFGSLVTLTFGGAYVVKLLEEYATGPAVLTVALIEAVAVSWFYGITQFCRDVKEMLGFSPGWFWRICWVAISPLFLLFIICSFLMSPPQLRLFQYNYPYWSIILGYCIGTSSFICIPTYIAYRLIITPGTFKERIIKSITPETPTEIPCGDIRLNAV

| Ki [1] [nM] | Ki [2, 5] [nM] | SMILES | Ki [3] [nM] | Kb ([4]; read-out: H3 pA2 (converted)) [nM] | Ki [2] [nM] | Kb [4] [nM] |
| --- | --- | --- | --- | --- | --- | --- |
| 16 | 3 | CSc1ccc([C@@H]2CN3CCC[C@@H]3c3cc(OCCCN4CCOCC4)ccc32)cc1 [Example 89, (1R,6S)-6-(4-Methylsulfanyl-phenyl)-9-(3-morpholin-4-yl-propoxy)-1,2,3,5,6,10b-hexahydro-pyrrolo[2,1-a]isoquinoline] | – | – | – | – |
| 0.4 | 4 | COc1ccc([C@H]2CN3CCC[C@H]3c3cc(OC4CCN(C(C)C)CC4)ccc32)cc1 (relative stereo) [Example 28] | 5 | – | – | – |
| 10 | 24 | CSc1ccc([C@H]2CN3CCC[C@H]3c3cc(OCCCN4CCOCC4)ccc32)cc1 [Example 90, (1S,6R)-6-(4-Methylsulfanyl-phenyl)-9-(3-morpholin-4-yl-propoxy)-1,2,3,5,6,10b-hexahydro-pyrrolo[2,1-a]isoquinoline] | – | – | – | – |
| 6 | 11 | COc1ccc([C@@H]2CN3CCC[C@H]3c3cc(OCCCN4CCOCC4)ccc32)cc1 [Example 95, (1S,6S)-6-(4-Methoxy-phenyl)-9-(3-morpholin-4-yl-propoxy)-1,2,3,5,6,10b-hexahydro-pyrrolo[2,1-a]isoquinoline] | 13 | – | – | – |
| 4 | 14 | COc1ccc([C@H]2CN3CCC[C@H]3c3cc(OCCCN4CCOC[C@@H]4C)ccc32)cc1 [Example 46, Cis-6-(4-Methoxy-phenyl)-9-[3-(3S-methyl-morpholin-4-yl)-propoxy]-1,2,3,5,6,10b-hexahydro-pyrrolo[2,1-a]isoquinoline] | 9 | – | – | – |
| 16 | 2.2 | COc1ccc([C@@H]2CN3CCC[C@@H]3c3cc(OCCCN4CCOCC4)ccc32)cc1 [Example 92, (1R,6S)-6-(4-Methoxy-phenyl)-9-(3-morpholin-4-yl-propoxy)-1,2,3,5,6,10b-hexahydro-pyrrolo[2,1-a]isoquinoline] | 4 | 15.8 | – | – |
| 36 | 69 | CSc1ccc(C2CN3CCCC3c3cccc(OCCCN4CCCCC4)c32)cc1 (centres unmarked) [Example 39C, 6-(4-Methylsulfanyl-phenyl)-7-(3-piperidin-1-yl-propoxy)-1,2,3,5,6,10b-hexahydro-pyrrolo[2,1-a]isoquinoline] | – | – | – | – |
| 136 | 1000 | Clc1cccc([C@@H]2CN3CCC[C@H]3c3cccc(OCCCN4CCCCC4)c32)c1 (relative stereo) [Example 11C] | – | – | – | – |
| 4 | 53 | COc1ccc([C@H]2CN3CCC[C@@H]3c3cc(OCCCN4CCOCC4)ccc32)cc1 [Example 94, (1R,6R)-6-(4-Methoxy-phenyl)-9-(3-morpholin-4-yl-propoxy)-1,2,3,5,6,10b-hexahydro-pyrrolo[2,1-a]isoquinoline] | 111 | – | – | – |
| 1 | 91 | Clc1cccc([C@H]2CN3CCC[C@H]3c3cc(OCCCN4CCCCC4)ccc32)c1 (relative stereo) [Example 11B, Trans-6-(3-Chloro-phenyl)-9-(3-piperidin-1-yl-propoxy)-1,2,3,5,6,10b-hexahydro-pyrrolo[2,1-a]isoquinoline] | – | 0.501 | – | – |
| – | 60 | COc1ccc([C@H]2CN3CCC[C@H]3c3cc(OCCCN4CCOCC4)ccc32)cc1 [Example 91, (1S,6R)-6-(4-Methoxy-phenyl)-9-(3-morpholin-4-yl-propoxy)-1,2,3,5,6,10b-hexahydro-pyrrolo[2,1-a]isoquinoline] | – | 3.16 | – | – |

The next lines start with the compound.

| SMILES | Ki [1] [nM] | Ki [2, 5] [nM] | Ki [3] [nM] | Kb ([4]; read-out: H3 pA2 (converted)) [nM] | Ki [2] [nM] | Kb [4] [nM] |
| --- | --- | --- | --- | --- | --- | --- |
| FC(F)(F)Oc1ccc([C@H]2CN3CCC[C@H]3c3cc(OCCCN4CCCCC4)ccc32)cc1 (relative stereo) [Example 17] | 4 | 11 | 7 | 6.31 | – | – |
| COc1cccc([C@@H]2CN3CCC[C@H]3c3cccc(OCCCN4CCCCC4)c32)c1 (relative stereo) [Example 10C, Trans-6-(3-Methoxy-phenyl)-7-(3-piperidin-1-yl-propoxy)-1,2,3,5,6,10b-hexahydro-pyrrolo[2,1-a]isoquinoline] | 82 | 2000 | – | – | – | – |
| FC(F)(F)c1cccc([C@H]2CN3CCC[C@H]3c3cc(OCCCN4CCCCC4)ccc32)c1 (relative stereo) [Example 67] | 2 | 22 | 9 | 0.501 | – | – |
| C[Si](C)(C)C#Cc1ccc([C@H]2CN3CCC[C@H]3c3cc(OCCCN4CCCCC4)ccc32)cc1 (relative stereo) [Example 36] | 4 | – | – | – | 15 | 10 |
| N#Cc1ccc([C@H]2CN3CCC[C@H]3c3cc(OCCCN4CCCCC4)ccc32)cc1 (relative stereo) [Example 41B, Trans-4-[9-(3-Piperidin-1-yl-propoxy)-1,2,3,5,6,10b-hexahydro-pyrrolo[2,1-a]isoquinolin-6-yl]-benzonitrile] | 1 | 6 | – | 0.794 | – | – |
| c1ccc([C@H]2CN3CCC[C@H]3c3cc(OCCCN4CCCCC4)ccc32)cc1 (relative stereo) [Example 1A, Cis-6-Phenyl-9-(3-piperidin-1-yl-propoxy)-1,2,3,5,6,10b-hexahydro-pyrrolo[2,1a]isoquinoline] | 0.9 | 2 | 4 | 0.2 | – | – |
| FC(F)(F)c1ccc([C@@H]2CN3CCC[C@H]3c3cccc(OCCCN4CCCCC4)c32)cc1 (relative stereo) [Example 7C] | 31 | 630 | – | – | – | – |
| c1ccc([C@@H]2CN3CCC[C@H]3c3cccc(OCCCN4CCCCC4)c32)cc1 (relative stereo) [Example 1C, Trans-6-Phenyl-7-(3-piperidin-1-yl-propoxy)-1,2,3,5,6,10b-hexahydro-pyrrolo[2,1a]isoquinoline] | 68 | 4000 | – | – | – | – |
| CN(C)c1ccc([C@H]2CN3CCC[C@H]3c3cc(OCCCN4CCCCC4)ccc32)cc1 (relative stereo) [Example 30] | 2 | 3 | 2 | – | – | – |
| COc1cccc([C@@H]2CN3CCC[C@H]3c3cc(OCCCN4CCCCC4)ccc32)c1 (relative stereo) [Example 10B, Trans-6-(3-Methoxy-phenyl)-9-(3-piperidin-1-yl-propoxy)-1,2,3,5,6,10b-hexahydro-pyrrolo[2,1-a]isoquinoline] | 2 | 37 | – | 0.251 | – | – |
| Oc1ccc([C@H]2CN3CCC[C@H]3c3cc(OCCCN4CCCCC4)ccc32)cc1 (relative stereo) [Example 9A] | 2 | 9 | 58 | 0.316 | – | – |
| c1ccc([C@@H]2CN3CCC[C@H]3c3cc(OCCCN4CCCCC4)ccc32)cc1 (relative stereo) [Example 1B, Trans-6-Phenyl-9-(3-piperidin-1-yl-propoxy)-1,2,3,5,6,10b-hexahydro-pyrrolo[2,1a]isoquinoline] | 0.2 | 138 | – | 0.251 | – | – |
| COc1cccc([C@H]2CN3CCC[C@H]3c3cc(OCCCN4CCCCC4)ccc32)c1 (relative stereo) [Example 10A, Cis-6-(3-Methoxy-phenyl)-9-(3-piperidin-1-yl-propoxy)-1,2,3,5,6,10b-hexahydro-pyrrolo[2,1-a]isoquinoline] | 2 | 5 | 2 | 0.158 | – | – |
| C[Si](C)(C)C#Cc1cccc([C@H]2CN3CCC[C@H]3c3cc(OCCCN4CCCCC4)ccc32)c1 (relative stereo) [Example 33] | 7 | – | – | – | 33 | 7.94 |
| O=[N+]([O-])c1ccc([C@@H]2CN3CCC[C@H]3c3cc(OCCCN4CCCCC4)ccc32)cc1 (relative stereo) [Example 2B, Trans-6-(4-Nitro-phenyl)-9-(3-piperidin-1-yl-propoxy)-1,2,3,5,6,10b-hexahydro-pyrrolo[2,1-a]isoquinoline] | 31 | 544 | – | 1.58 | – | – |
| N#Cc1ccc([C@@H]2CN3CCC[C@H]3c3cc(OCCCN4CCCCC4)ccc32)cc1 (relative stereo) [Example 41A, Cis-4-[9-(3-Piperidin-1-yl-propoxy)-1,2,3,5,6,10b-hexahydro-pyrrolo[2,1-a]isoquinolin-6-yl]-benzonitrile] | 1 | 25 | 59 | 0.794 | – | – |
| O=[N+]([O-])c1cccc([C@@H]2CN3CCC[C@H]3c3cccc(OCCCN4CCCCC4)c32)c1 (relative stereo) [Example 4D, Trans-6-(3-Nitro-phenyl)-7-(3-piperidin-1-yl-propoxy)-1,2,3,5,6,10b-hexahydro-pyrrolo[2,1-a]isoquinoline] | 1 | 154 | – | – | – | – |
| Clc1cccc([C@@H]2CN3CCC[C@H]3c3cc(OCCCN4CCCCC4)ccc32)c1 (relative stereo) [Example 11A, Cis-6-(3-Chloro-phenyl)-9-(3-piperidin-1-yl-propoxy)-1,2,3,5,6,10b-hexahydro-pyrrolo[2,1-a]isoquinoline] | 1 | 4 | 0.6 | 0.316 | – | – |
| FC(F)(F)c1ccc([C@@H]2CN3CCC[C@H]3c3cc(OCCCN4CCCCC4)ccc32)cc1 (relative stereo) [Example 7A, Cis-9-(3-Piperidin-1-yl-propoxy)-6-(4-trifluoromethyl-phenyl)-1,2,3,5,6,10b-hexahydro-pyrrolo[2,1-a]isoquinoline] | – | 27 | – | – | – | – |
| Oc1ccc([C@@H]2CN3CCC[C@H]3c3cccc(OCCCN4CCCCC4)c32)cc1 (relative stereo) [Example 9B] | 1000 | 6000 | – | – | – | – |
